In brackets after ≈: the same amount, converted by molar mass.
Columns and labels:
[1] = system: Trichophyton mentagrophytes; assay: In vitro antifungal activity test (Test Example 1), Sabouraud's agar, Trichophyton mentagrophytes; format: cell-based; conditions: 168 h; (a) Trichophyton mentagrophytes; 27° C., 7 days; read-out: minimal growth-inhibitory concentration (MIC)
Method: (§1) The antifungal activity of the compound of the present invention against Trichophyton metagrophytes, Trichophyton interdigitale and Trichophyton rubrum was tested employing Sabouraud's agar medium.
(§2) Each test compound shown in Table 4 was dissolved into 1 ml of ethanol and thereto distilled water was added to adjust to the concentration of 1000 μg/ml. In this way twofold dilution series was made, 1 ml of which was respectively taken into shale and therewith 9 ml of Sabouraud's agar medium was mixed to form plate medium.
(§3) In this plate medium was implanted 0.0005 ml of each test fungus at 2×10^6 spores/ml by the microplanter MIP-2 (Sakuma Seisakusho Co., Ltd.) and was incubated at 27° C. for 7 days. The results were shown in Table 2 as the minimal growth-inhibitory concentration (MIC, μg/ml).

[2] = system: Trichophyton interdigitale; assay: In vitro antifungal activity test (Test Example 1), Sabouraud's agar, Trichophyton interdigitale; format: cell-based; conditions: 168 h; (b) Trichophyton interdigitale; 27° C., 7 days; read-out: minimal growth-inhibitory concentration (MIC)
Method: as §1, §2, §3

Trichophyton rubrum = assay: In vitro antifungal activity test (Test Example 1), Sabouraud's agar, Trichophyton rubrum; format: cell-based; conditions: 168 h; (c) Trichophyton rubrum; 27° C., 7 days; read-out: minimal growth-inhibitory concentration (MIC)
Method: as §1, §2, §3

[3] = system: Trichophyton mentagrophytes; assay: Test on treatment of trichophytosis in guinea pig (Test Example 2); format: in vivo; conditions: 0.2 ml of 0.1 % solution in ethanol, once in a day for ten days since 48 hours after infection; guinea pig back skin
Method: In the back of male Hartley guinea pig weighing 600° to 700 g, four portions were unhaired in an area of 4 cm^2 respectively and rubbed lightly with sandpaper, to which the second generation of Trichophyton mentagrophytes incubated inversely from another guinea pig was infected at 1×10^5 spores per portion. The test compounds obtained in Example 1 was dissolved in ethanol and 0.2 ml of the resultant 0.1 % solution was applied to the infected portions once in a day for ten days since 48 hours after the infection. Test animal was killed 2 days after the last treatment and 10 tissue specimens from each infected portions were placed on Sabouraud's plates containing cycloheximide and kanamycin, which were incubated at 27° C. for 7 days.
inhibitory ratio ={1-(number of tissue specimens found fungi/number of tissue specimens incubated inversely)}×100

[4] = Side effect test on guinea pig skin (Test Example 3); format: in vivo, male Hartley guinea pig; conditions: 0.2 ml/day of 0.5 % solution in ethanol, once in a day for ten days; lightly rubbed guinea pig skin
Method: Two portions in the back of male Hartley guinea pig weighing 600° to 700 g were unhaired in an area of 4 cm^2 respectively in order to examine side effects of the test compounds. The next day unhaired portions were lightly rubbed with sandpaper. The test compounds obtained in Example 1 was dissolved in ethanol and 0.2 ml/day of the resultant 0.5 % solution was applied to one of the unhaired portions, while 0.2 ml/day of only ethanol was applied to the other portions, once in a day for ten days respectively.

| Structure (SMILES) | MIC [1] [µg/mL] | MIC [2] [µg/mL] | MIC (Trichophyton rubrum) [µg/mL] | inhibitory ratio [3] [%] | side effects [4] |
| --- | --- | --- | --- | --- | --- |
| CN(Cc1ccc(C(C)(C)C)cc1)Cc1cccc2ccccc12.Cl [Example 1, N-(4-tert-butylbenzyl)-N-methyl-1-naphthylmethylamine hydrochloride] | 0.0125 | 0.006 | 0.003 | 82 | side effects such as, for instance, erythema and papula were not observed |
| Cc1ccc2ccccc2c1CN(C)Cc1ccc(C(C)(C)C)cc1 [Example 2] | 0.2 (≈ 0.603 µM) | 0.1 (≈ 0.302 µM) | 0.1 (≈ 0.302 µM) |  |  |
| Cc1ccc(CN(C)Cc2ccc(C(C)(C)C)cc2)c2ccccc12 [Example 3] | 0.1 (≈ 0.302 µM) | 0.05 (≈ 0.151 µM) | 0.025 (≈ 0.0754 µM) |  |  |
| CN(Cc1ccc(C(C)(C)C)cc1)Cc1ccc(F)c2ccccc12 [Example 4] | 0.025 (≈ 0.0745 µM) | 0.006 (≈ 0.0179 µM) | 0.006 (≈ 0.0179 µM) |  |  |
| CN(Cc1ccc(C(C)(C)C)cc1)Cc1ccc(Cl)c2ccccc12 [Example 5] | 0.1 (≈ 0.284 µM) | 0.1 (≈ 0.284 µM) | 0.025 (≈ 0.071 µM) |  |  |
| CN(Cc1ccc(C(C)(C)C)cc1)Cc1ccc(Br)c2ccccc12 [Example 6] | 0.2 (≈ 0.505 µM) | 0.2 (≈ 0.505 µM) | 0.05 (≈ 0.126 µM) |  |  |
| CN(Cc1ccc(C(C)(C)C)cc1)Cc1ccc(I)c2ccccc12 [Example 7] | 0.78 (≈ 1.76 µM) | 0.39 (≈ 0.88 µM) | 0.39 (≈ 0.88 µM) |  |  |
| CN(Cc1ccc(C(C)(C)C)cc1)Cc1cccc2c([N+](=O)[O-])cccc12 [Example 8] | 0.1 (≈ 0.276 µM) | 0.05 (≈ 0.138 µM) | 0.025 (≈ 0.069 µM) |  |  |
| CC(c1cccc2ccccc12)N(C)Cc1ccc(C(C)(C)C)cc1 (stereo not shown) [Example 9, N-4-tert-Butylbenzyl-N-methyl-1-(1-naphthyl)ethylamine] | 0.025 (≈ 0.0754 µM) | 0.025 (≈ 0.0754 µM) | 0.003 (≈ 0.00905 µM) |  |  |
| CN(Cc1ccc(C(C)(C)C)cc1)Cc1ccc2ccccc2c1 [Example 10] | 1.56 (≈ 4.91 µM) | 1.56 (≈ 4.91 µM) | 0.39 (≈ 1.23 µM) |  |  |
| CCC(C)(C)c1ccc(CN(C)Cc2cccc3ccccc23)cc1 [Example 12, N-Methyl-N-4-tert-pentylbenzyl-1-naphthylmethylamine] | 0.0125 (≈ 0.0377 µM) | 0.0125 (≈ 0.0377 µM) | 0.006 (≈ 0.0181 µM) |  |  |
| Cc1cccc(CN(C)Cc2cccc3ccccc23)c1 [Example 13] | 25 (≈ 90.8 µM) | 25 (≈ 90.8 µM) | 12.5 (≈ 45.4 µM) |  |  |
| CN(Cc1cccc(C(F)(F)F)c1)Cc1cccc2ccccc12 [Example 14] | 12.5 (≈ 38 µM) | 6.25 (≈ 19 µM) | 6.25 (≈ 19 µM) |  |  |
| Cc1ccc(CN(C)Cc2cccc3ccccc23)cc1 [Example 15] | 0.78 (≈ 2.83 µM) | 3.13 (≈ 11.4 µM) | 0.39 (≈ 1.42 µM) |  |  |
| CN(Cc1ccc(C2CCCCC2)cc1)Cc1cccc2ccccc12 [Example 16] | 3.13 (≈ 9.11 µM) | 1.56 (≈ 4.54 µM) | 1.56 (≈ 4.54 µM) |  |  |
| CN(Cc1ccc(Cl)c(Cl)c1)Cc1cccc2ccccc12 [Example 17] | 1.56 (≈ 4.72 µM) | 1.56 (≈ 4.72 µM) | 1.56 (≈ 4.72 µM) |  |  |
| CCN(Cc1ccc(C(C)(C)C)cc1)Cc1cccc2ccccc12 [Example 18] | 0.1 (≈ 0.302 µM) | 0.05 (≈ 0.151 µM) | 0.006 (≈ 0.0181 µM) |  |  |
| CCCN(Cc1ccc(C(C)(C)C)cc1)Cc1cccc2ccccc12 [Example 19] | 0.78 (≈ 2.26 µM) | 0.2 (≈ 0.579 µM) | 0.2 (≈ 0.579 µM) |  |  |
| CCCCN(Cc1ccc(C(C)(C)C)cc1)Cc1cccc2ccccc12 [Example 20] | 6.25 (≈ 17.4 µM) | 6.25 (≈ 17.4 µM) | 3.13 (≈ 8.71 µM) |  |  |

| Structure (SMILES) | MIC [1] [µg/mL] | MIC [2] [µg/mL] | MIC (Trichophyton rubrum) [µg/mL] | inhibitory ratio [3] [%] | side effects [4] |
| --- | --- | --- | --- | --- | --- |
| CC(C)c1ccc(CN(C)Cc2cccc3ccccc23)cc1 [Example 22, N-4-Isopropylbenzyl-N-methyl-1-naphthylmethylamine] | 0.025 (≈ 0.0824 µM) | 0.1 (≈ 0.33 µM) | 0.0125 (≈ 0.0412 µM) |  |  |
| CCc1ccc(CN(C)Cc2cccc3ccccc23)cc1 [Example 23] | 0.1 (≈ 0.346 µM) | 0.2 (≈ 0.691 µM) | 0.1 (≈ 0.346 µM) |  |  |
| CCCCc1ccc(CN(C)Cc2cccc3ccccc23)cc1 [Example 24] | 0.1 (≈ 0.315 µM) | 0.2 (≈ 0.63 µM) | 0.1 (≈ 0.315 µM) |  |  |
| Cc1ccc(CN(C)Cc2cccc3ccccc23)cc1C [Example 25] | 0.78 (≈ 2.7 µM) | 0.78 (≈ 2.7 µM) | 0.39 (≈ 1.35 µM) |  |  |
| Cc1cc(C)cc(CN(C)Cc2cccc3ccccc23)c1 [Example 26] | 12.5 (≈ 43.2 µM) | 12.5 (≈ 43.2 µM) | 6.25 (≈ 21.6 µM) |  |  |
| CN(Cc1ccc(C(C)(C)C)cc1)Cc1c(O)ccc2ccccc12.Cl [Example 28, N-(4-tert-butylbenzyl)-N-methyl-2-hydroxy-1-naphthylmethylamine hydrochloride] | 25 | 12.5 | 6.25 |  |  |
| CN(Cc1ccc(C(C)(C)C)cc1)Cc1csc2ccccc12 [Example 29, N-4-tert-Butylbenzyl-N-methyl-3-benzo[b]-thienylmethylamine] | 0.05 (≈ 0.155 µM) |  | 0.05 (≈ 0.155 µM) |  |  |
| CCN(Cc1ccc(C(C)(C)C)cc1)Cc1csc2ccccc12 [Example 30] | 0.78 (≈ 2.31 µM) |  | 0.78 (≈ 2.31 µM) |  |  |
| Cc1cccc2c(CN(C)Cc3ccc(C(C)(C)C)cc3)csc12 [Example 33] | 0.2 (≈ 0.593 µM) |  | 0.1 (≈ 0.296 µM) |  |  |
| CN(Cc1ccc(C(C)(C)C)cc1)Cc1cccc2sccc12 [Example 34] | 0.025 (≈ 0.0773 µM) |  | 0.025 (≈ 0.0773 µM) |  |  |
| CN(Cc1ccc(C(C)(C)C)cc1)Cc1cccc2ccsc12 [Example 35] | 0.78 (≈ 2.41 µM) |  | 0.78 (≈ 2.41 µM) |  |  |
| CN(Cc1ccc(C(C)(C)C)cc1)Cc1cccc2c1CCCC2 [Example 39] | 0.39 (≈ 1.21 µM) |  | 0.39 (≈ 1.21 µM) |  |  |
| CN(Cc1ccc2ccccc2c1)Cc1ccc(F)c2ccccc12 [Example 43] | 0.2 (≈ 0.607 µM) |  | 0.2 (≈ 0.607 µM) |  |  |
| Cc1ccc(CN(C)Cc2ccc3ccccc3c2)c2ccccc12 [Example 49] | 0.39 (≈ 1.2 µM) |  | 0.39 (≈ 1.2 µM) |  |  |
| CC(c1cccc2ccccc12)N(C)Cc1ccc2ccccc2c1 (stereo not shown) [Example 51] | 0.39 (≈ 1.2 µM) |  | 0.2 (≈ 0.615 µM) |  |  |
| CN(Cc1ccc2c(c1)CCCC2)Cc1cccc2ccccc12 [Example 54] | 0.1 (≈ 0.317 µM) |  | 0.1 (≈ 0.317 µM) |  |  |
| CCN(Cc1ccc2c(c1)CCCC2)Cc1cccc2ccccc12 [Example 56] | 0.2 (≈ 0.607 µM) |  | 0.2 (≈ 0.607 µM) |  |  |
| CCN(Cc1ccc2ccccc2c1)Cc1cccc2ccccc12 [Example 63] | 0.39 (≈ 1.2 µM) |  | 0.1 (≈ 0.307 µM) |  |  |
| CN(Cc1ccc(C(C)(C)C)s1)Cc1cccc2ccccc12 [Example 69] | 0.05 (≈ 0.155 µM) |  | 0.025 (≈ 0.0773 µM) |  |  |

Source: US5021458A, “Amine derivatives and fungicides containing the same” (Kaken Pharmaceutical Co., Ltd., priority 1984, dated 1991)
